Measurements taken from patent US20090270496A1, “ANTIFUNGAL COMPOUNDS” (priority 2007, published 2009).

Assays:
[1] = test system: cytoplasmic Ca2+ in S. cerevisiae cells (FY70 [pEVP11/AEQ]); assay: Aequorin luminescence, yeast cytoplasmic Ca2+; format: cell-based, Saccharomyces cerevisiae; conditions: 50 μM added at t=30 sec, monitored […]; also: monitored 3.5 min
Protocol: Cells were transformed with pEVP11/AEQ, which constitutively expresses apoaequorin directed to the cytoplasm (Batiza et al., 1996) Transformed cells were grown to mid-exponential phase in SD-leu to maintain the plasmid. 1.5×10^7 cells were pelleted and resuspended in fresh SD-leu medium containing 5.9 μM coelenterazine for 1 hour to allow the cofactor to diffuse into cells and bind the apoaequorin. Cells were pelleted again and resuspended in fresh SD-leu (“SD” buffer) and 2.5×10^6 cells per well aliquoted to a microtiter plate for luminescence measurement. Luminescence was measured in an EG&G Berthold luminometer using Winglow monitoring and analysis software.
S. cerevisiae cells were prepared for aequorin assays as just described.

[2] = molecular target: Gi2 (Homo sapiens, UniProt P04899); conditions: reconstituted Gi2, in vitro; read-out: EC50, activation of GTPase; cited from earlier work
[3] = test system: HL-60 cells; conditions: in the presence but not in the absence of extracellular Ca2+; cited from earlier work
[4] = cited from earlier work
[5] = during chronic treatment; cited from earlier work

Gi2, sequence (P04899 2-355 limits assumed): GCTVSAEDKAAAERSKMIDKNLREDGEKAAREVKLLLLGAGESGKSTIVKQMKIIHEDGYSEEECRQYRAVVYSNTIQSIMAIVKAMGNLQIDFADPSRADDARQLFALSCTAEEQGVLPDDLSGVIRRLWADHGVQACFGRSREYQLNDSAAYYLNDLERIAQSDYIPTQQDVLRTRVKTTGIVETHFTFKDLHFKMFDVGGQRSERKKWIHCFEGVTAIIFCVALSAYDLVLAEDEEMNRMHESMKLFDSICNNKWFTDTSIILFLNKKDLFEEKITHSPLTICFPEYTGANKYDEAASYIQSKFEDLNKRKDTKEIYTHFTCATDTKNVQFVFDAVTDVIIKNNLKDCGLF

CCCCc1oc2ccccc2c1C(=O)c1cc(I)c(OCCN(CC)CC)c(I)c1 [Amiodarone, amiodarone]
increase in RLUs (cytoplasmic Ca2+) [1]: immediate and very large increase | increase in RLUs (cytoplasmic Ca2+) ([1]; listed as amiodarone): immediate and huge increase | EC50 [2]: 50 µM | cytosolic Ca2+ concentration [3]: increased | ataxia, patients affected ([4]; especially during loading doses): 20-40% | pulmonary fibrosis or pneumonitis fatal, cases ([4]; human, in vivo): about 10%

CCCCc1oc2ccccc2c1C(=O)c1cc(I)c(OCCNCC)c(I)c1 [desethylamiodarone]
plasma ratio of metabolite to parent compound [5]: approximately one
